# Measured values taken from patent US7323319B2, “RNA containing coenzymes, biotin, or fluorophores, and methods for their preparation and use” (The University of Southern Mississippi, priority 2003, dated 2008).
# Read-outs that look alike come from different tables or passages of the source.
# How the values were obtained:
# T7 RNA polymerase [1] = molecular target: T1, T7 RNA polymerase (Escherichia phage T7, UniProt P00573); format: biochemical; settings: for effect of 3′ blocked adenosine derivatives on normal RNA transcription and on CoA-RNA transcription: 4 mM, without coenzymes or in the presence of 4 mM De-P-CoA; for relative CoA-RNA yield / total RNA yield relative to RNA obtained at 1 mM ATP and 0 mM De-P-CoA: 4 mM De-P-CoA
# T1 sequence (P00573 whole entry): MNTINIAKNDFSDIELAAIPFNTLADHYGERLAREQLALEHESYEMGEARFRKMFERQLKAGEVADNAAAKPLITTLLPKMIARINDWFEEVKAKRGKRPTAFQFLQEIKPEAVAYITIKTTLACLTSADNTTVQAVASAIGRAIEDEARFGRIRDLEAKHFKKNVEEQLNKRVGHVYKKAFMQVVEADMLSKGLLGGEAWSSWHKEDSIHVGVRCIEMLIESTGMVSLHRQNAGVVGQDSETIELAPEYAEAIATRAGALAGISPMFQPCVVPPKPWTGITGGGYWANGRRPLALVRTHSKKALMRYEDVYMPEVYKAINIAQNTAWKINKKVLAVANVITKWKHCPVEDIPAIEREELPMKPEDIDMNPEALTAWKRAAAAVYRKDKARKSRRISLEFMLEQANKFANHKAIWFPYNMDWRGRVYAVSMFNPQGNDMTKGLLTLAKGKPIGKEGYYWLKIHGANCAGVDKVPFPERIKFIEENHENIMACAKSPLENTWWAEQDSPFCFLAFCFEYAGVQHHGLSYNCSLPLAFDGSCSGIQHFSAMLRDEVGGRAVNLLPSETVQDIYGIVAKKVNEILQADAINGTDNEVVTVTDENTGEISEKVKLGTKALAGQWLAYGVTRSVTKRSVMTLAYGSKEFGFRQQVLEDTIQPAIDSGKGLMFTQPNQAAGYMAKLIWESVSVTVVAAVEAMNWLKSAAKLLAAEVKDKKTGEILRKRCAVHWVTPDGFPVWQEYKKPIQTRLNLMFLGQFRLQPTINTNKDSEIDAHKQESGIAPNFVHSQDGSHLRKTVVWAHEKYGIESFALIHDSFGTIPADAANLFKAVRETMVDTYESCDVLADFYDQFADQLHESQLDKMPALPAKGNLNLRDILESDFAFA
# From the text: To physically separate CoA-RNA from pppRNA by PAGE, a different RNA sequence of 35 nucleotides was designed to allow a specific DNazyme (Santoro, S. W. and Joyce, G. F., Proc. Natl. Acad. Sci. USA 94: 4262-4266 (1997)) cleavage after transcription. Two DNA oligonucleotides with the sequence of 5′-[…]-3′ (SEQ ID NO:2) and 5′-[…]-3′ (SEQ ID NO:3) were used to construct (by PCR) a DNA duplex template, from which a 35 nt RNA sequence of 5′-[…]-3′ (SEQ ID NO:4) was transcribed. A DNazyme (with the sequence of 5′-[…]-3′; SEQ ID NO:5) was then used to specifically cleave off a portion of the 3′ heterogeneous ends of both CoA-RNA and pppRNA, yielding a homogeneous length of 25 nt CoA-RNA and pppRNA. Similar transcription conditions were used with the exception of different concentrations of ATP. Transcribed RNA (about […]) was incubated with […] DNazyme for 60 minutes at 37° C. in 50 mM MgCl2 and 50 mM Tris, pH 8.0. RNA was then analyzed by 12% denaturing PAGE.
# (§1) After polyacrylamide gel electrophoresis, individual RNA bands were visualized through phosphorimaging (Molecular Imager, Bio-Rad Laboratories, Hercules, Calif.). Quantitation of different RNA bands was achieved through profile integration after horizontal background subtraction. Coenzyme-RNA (CoE-RNA) yields were calculated based on relative intensity of pppRNA bands (N, N+1, and N+2 bands) in the absence of coenzymes. To confirm the validity of the calculation, DNazyme-cleaved pppRNA and CoA-RNA were quantitated directly after gel resolution of CoA-RNA from pppRNA. In addition, CoA-RNA yield was determined independently by thiopropyl Sepharose 6B affinity chromatography based on its free sulfhydryl group.
# To physically resolve coenzyme-RNA from pppRNA by gel, a DNazyme (Santoro, S. W., and Joyce, G. F., Proc. Natl. Acad. Sci. USA, 94: 4262-4266 (1997)) was designed to trim off the 3′ heterogeneous ends of RNA.
# T7 RNA polymerase [2] = molecular target: T1, T7 RNA polymerase; assay: Coenzyme-initiated in vitro transcription of CoES7 RNA under T7 class II promoter, PAGE and phosphorimaging; format: biochemical; settings: for relative intensity of N band RNA / relative intensity of N+1 band RNA / relative intensity of N+2 band RNA: 4 mM coenzyme, 1 mM each NTP, CoES7 RNA, 2 hours 37° C.; for total RNA yields versus standard transcription conditions: higher than 8 mM coenzyme
# Protocol: Transcription promoter sequence was derived from the T7 class II promoter (φ2.5) (FIG. 1) (Dunn, J. J., and Studier, F. W., J. Mol. Biol. 166: 477-535 (1983)). The RNA sequence was from a previously isolated coenzyme-synthesizing ribozyme (Huang, F., et al., Biochemistry 39: 15548-15555 (2000)), CoES7, with the sequence of 5′-[…]-3′ (SEQ ID NO:1). Transcription was carried out under the following standard conditions: 1 mM each of ATP, UTP, GTP, and CTP, 40 mM Tris (pH 8.0), 6 mM MgCl2, 2 mM spermidine, 0.01% Triton X-100, 5 mM DTT, 0.2 unit/mL RNase inhibitor, […] DNA templates, and 5 unit/mL T7 RNA polymerase. In addition, different concentrations of coenzymes, De-P-CoA, NAD, and FAD were included to initiate transcription. For quantitation purposes, [α-^32P]ATP (NEN Life Science, Boston, Mass.) was also added to transcription solutions to internally label RNA transcripts. All transcription reactions were allowed to proceed for 2 hours at 37° C. before product analysis by 8% denaturing PAGE.
# Transcription of CoES7 RNA was carried out under the standard conditions, with the addition of various concentrations of coenzymes. After fractionation by PAGE, different RNA bands became clearly visible. In the absence of any coenzymes (lane 1), transcription produced three pppRNA bands in decreasing order: the full-length RNA transcripts (N band), N+1, and N+2 bands (with one and two extra nucleotides added at the 3′ end of full-length RNA). Their relative yields were 59%, 35%, and 6% (from N to N+2), respectively. When one of the three coenzymes, De-P-CoA, NAD, and FAD, was added to the transcription solution (lanes 2-4), no additional RNA bands were generated. However, the relative intensity of the three RNA bands in each lane changed considerably when compared with that of lane 1. […] In the presence of 4 mM De-P-CoA (lane 2), the relative intensity of the three bands changed to 40%, 45%, and 15% (from N to N+2). The relative RNA band intensity were 30%, 49%, and 21% for both NAD- and FAD-initiated transcription (lanes 3 and 4). These changes in RNA band relative intensity resulted from the incorporation of coenzymes (De-P-CoA, NAD, and FAD) into RNA. When one of these coenzymes is incorporated to the 5′ end of RNA, the coenzyme-linked RNA (CoE-RNA) behaves as if an extra normal nucleotide is added to the pppRNA. Therefore, the N band CoE-RNA co-migrates with the N+1 band pppRNA, while the N+1 band CoE-RNA and the N+2 band pppRNA run together in the gel. The N+2 band CoE-RNA was barely visible because of its low intensity. To confirm the incorporation of coenzymes into RNA under the class II promoter, three independent experiments were performed: resolution of CoA-RNA from pppRNA by gel after DNazyme cleavage, measurement of free sulfhydryl group of CoA-RNA, and fluorescence emission spectrum of FAD-RNA.
# [3] = Fluorescence emission spectra of FAD-RNA and free FAD; format: physicochemical; settings: 0.5 M sodium acetate, pH 5.2
# T7 RNA polymerase [4] = molecular target: T1, T7 RNA polymerase; settings: CoES7 RNA prepared under 1 mM ATP and 4 mM De-P-CoA
# Protocol: as §1
# [5] = different coenzyme concentrations (De-P-CoA: low concentrations; FAD: especially >4 mM), FIGS. 4A-4C
# [6] = 0.2-0.5 mM ATP and 4 mM De-P-CoA
structure (smiles),measurement,setting,value
Nc1ncnc2c1ncn2[C@@H]1O[C@H](CO)[C@@H](OP(=O)(O)O)[C@H]1O [3′ AMP],effect of 3′ blocked adenosine derivatives on normal RNA transcription and on CoA-RNA transcription,T7 RNA polymerase [1],neither CoA nor 3′ AMP has detectable effect
"Cc1cc2nc3c(=O)[nH]c(=O)nc-3n(C[C@H](O)[C@H](O)[C@H](O)COP(=O)(O)OP(=O)(O)OC[C@H]3O[C@@H](n4cnc5c(N)ncnc54)[C@H](O)[C@@H]3O)c2cc1C [FAD, flavin adenine dinucleotide]",relative intensity of N band RNA,T7 RNA polymerase [2],30%
same,relative intensity of N+1 band RNA,T7 RNA polymerase [2],49%
same,relative intensity of N+2 band RNA,T7 RNA polymerase [2],21%
same,effect on total RNA yield (transcription),T7 RNA polymerase [2]; [5],somewhat inhibitory effect
same,total RNA yields versus standard transcription conditions,T7 RNA polymerase [2],significantly lower
same,enhancement of fluorescence intensity by urea,[3]; 4 M urea,1.7 fold
same,enhancement of fluorescence intensity by urea,[3]; 7 M urea,2.7 fold
"CC(C)(COP(=O)(O)OP(=O)(O)OC[C@H]1O[C@@H](n2cnc3c(N)ncnc32)[C@H](O)[C@@H]1OP(=O)(O)O)[C@@H](O)C(=O)NCCC(=O)NCCS [CoA, coenzyme A]",effect of 3′ blocked adenosine derivatives on normal RNA transcription and on CoA-RNA transcription,T7 RNA polymerase [1],neither CoA nor 3′ AMP has detectable effect
"CC(C)(COP(=O)(O)OP(=O)(O)OC[C@H]1O[C@@H](n2cnc3c(N)ncnc32)[C@H](O)[C@@H]1O)[C@@H](O)C(=O)NCCC(=O)NCCS [De-P-CoA, 3′-Dephospho coenzyme A]",relative intensity of N band RNA,T7 RNA polymerase [2],40%
same,relative intensity of N+1 band RNA,T7 RNA polymerase [2],45%
same,relative intensity of N+2 band RNA,T7 RNA polymerase [2],15%
same,coenzyme-RNA (CoE-RNA) yield over total RNA synthesized,"T7 RNA polymerase [2]; 4-8 mM coenzyme, standard transcription conditions",30-35%
same,effect on total RNA yield (transcription),T7 RNA polymerase [2]; [5],stimulates transcription to some extent
same,effect on total RNA yield (transcription),T7 RNA polymerase [2]; higher concentrations of De-P-CoA,eventually becomes inhibitory
same,total RNA yields versus standard transcription conditions,T7 RNA polymerase [2],significantly lower
same,relative CoA-RNA yield,T7 RNA polymerase [1]; 0.1 mM ATP,56%
same,total RNA yield relative to RNA obtained at 1 mM ATP and 0 mM De-P-CoA,T7 RNA polymerase [1]; 0.1 mM ATP,12%
same,relative CoA-RNA yield,T7 RNA polymerase [1]; 0.2 mM ATP,52%
same,total RNA yield relative to RNA obtained at 1 mM ATP and 0 mM De-P-CoA,T7 RNA polymerase [1]; 0.2 mM ATP,44%
same,relative CoA-RNA yield,T7 RNA polymerase [1]; 0.5 mM ATP,46%
same,total RNA yield relative to RNA obtained at 1 mM ATP and 0 mM De-P-CoA,T7 RNA polymerase [1]; 0.5 mM ATP,85%
same,total RNA yield relative to RNA obtained at 1 mM ATP and 0 mM De-P-CoA,T7 RNA polymerase [1]; 1 mM ATP,110%
same,relative CoA-RNA yield,"T7 RNA polymerase [1]; 1 mM ATP, 1 mM GTP, CTP, UTP",33%
same,CoA-RNA produced by transcription,T7 RNA polymerase [1]; [6],over 50%
same,reduction in total RNA yields,T7 RNA polymerase [1]; [6],20-50%
same,loaded RNA retained on thiopropyl Sepharose 6B column (CoA-RNA yield),T7 RNA polymerase [4],30-35%
